The values below are quoted from earlier work in patent US6689909B1, “Substituted N-phenyl 2-hydroxy-2-methyl-3,3,3-trifluoropropanamide derivatives which elevate pyruvate dehydrogenase activity” (AstraZeneca AB, priority 1999, dated 2004).

In one data set the test system is PDH. The following applies: single administration, 150 mg/kg, intraperitoneally.
For data set [1] the following is noted: after repeated administration.

Turning to `O=C(O)C(Cl)Cl` [DCA, dichloroacetic acid], the “proportion of PDH in its active form” value in the data set with PDH is recorded as “increased the proportion of PDH in its active form”. Further, in data set [1], the plasma glucose result is listed as “significant decrease in plasma glucose”.
